From patent US20260078130A1, “NAMPT MODULATORS, PREPARATIONS, AND USES THEREOF” (SIRONAX LTD., priority 2022, published 2026) come the findings set out here.

Like-named read-outs stand apart in the source and are kept apart here. Bounds are passed on as bounds.

Assay [1] addresses T1, human enzyme NAMPT (full length) (Homo sapiens, UniProt P43490).
T1 construct: human enzyme NAMPT (full length)
Briefly: NMN fluorescence biochemical assay (stimulation of NMN synthesis by NAMPT). Particulars: for EC50: concentration giving half-maximal activation, read-out: Enzymatic EC50; for Enzymatic Emax: fold change of maximal activation compared to DMSO. The procedure, abridged:
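Full-length human NAMPT (100 nM) was preincubated 15 min at 37 °C with compound in 50 mM Tris-HCl pH 7.5, 10 mM MgCl2, 2 mM DTT, then reacted 1 h at 37 °C with 50 μM NAM, 100 μM PRPP, 4 mM ATP (stated solution concentrations). NMN was derivatised with acetophenone/KOH then formic acid and read at Ex/Em 382/445 nm; EC50 and Emax (fold over DMSO) reported.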

Assay [2] deals with endogenous NAMPT in U2OS cells. Briefly: Cellular NAD+ modulation assay (NAD/NADH-Glo, U2OS cells). In kind it is cell-based. The conditions noted are these: Homo sapiens; for maximal fold induction: read-out: Cellular Emax. The procedure, abridged: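 Endogenous NAMPT stimulation in U2OS cells treated with compound dilution series for 24 h at 37 °C. Cells lysed with DTAB base, acid-treated 15 min at 60 °C, neutralized, NAD+ read by NAD/NADH-Glo luminescence after 40 min at room temperature. EC50 and Emax (fold over DMSO) derived.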

Setting [3] is: NMN synthesis by purified human NAMPT (100 nM).
Where [4] appears, read: 24 hours incubation with compound.
Where [5] appears, read: NMN fluorescence assay, purified human NAMPT 100 nM.
[6] abbreviates: 24 hours incubation, cellular NAD+.

T1 sequence (P43490 whole entry): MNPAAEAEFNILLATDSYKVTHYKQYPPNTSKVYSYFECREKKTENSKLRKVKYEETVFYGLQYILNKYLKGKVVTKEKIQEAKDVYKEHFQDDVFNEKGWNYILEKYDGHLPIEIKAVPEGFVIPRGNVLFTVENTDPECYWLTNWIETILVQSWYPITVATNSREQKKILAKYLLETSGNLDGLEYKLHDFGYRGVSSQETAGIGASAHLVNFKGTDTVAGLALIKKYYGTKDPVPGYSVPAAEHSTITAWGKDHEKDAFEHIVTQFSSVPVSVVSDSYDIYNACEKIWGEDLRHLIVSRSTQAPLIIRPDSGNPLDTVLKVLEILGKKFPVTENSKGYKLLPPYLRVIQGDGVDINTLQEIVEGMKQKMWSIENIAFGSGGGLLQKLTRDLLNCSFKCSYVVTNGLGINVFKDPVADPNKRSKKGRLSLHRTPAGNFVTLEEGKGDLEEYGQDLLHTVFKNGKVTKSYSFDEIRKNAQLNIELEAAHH

Take `O=C1CCc2ccccc2N1Cc1ccc(O)cc1` [Compound 3, 1-(4-hydroxybenzyl)-3,4-dihydroquinolin-2(1H)-one]: the EC50 in assay [1] (setting [3]) is ≥ 5000 nM. Further, the “Enzymatic Emax” value in assay [1] is recorded as “B (3≥B>2)”. In addition, in assay [2] (setting [4]), the EC50 fell in the range of 5000 to 50000 nM and the maximal fold induction fell in the range of 1.2 to 1.5.
Turning to `COc1ccc(CN2C(=O)c3ccccc3C2Cc2ncccc2Br)cc1` (stereo not shown) [Compound 415, 3-((3-bromopyridin-2-yl)methyl)-2-(4-methoxybenzyl)isoindolin-1-one], the EC50 in assay [1] (setting [5]) was 500 to 5000 nM. For the same molecule, the “Enzymatic Emax” value in assay [1] is “B (3≥B>2)”. Moreover, in assay [2] (setting [6]), the EC50 is < 500 nM and the maximal fold induction was in the range of 1.2 to 1.5.
In the case of `Cn1ncc(Cl)c1CC1c2cc(Br)ccc2C(=O)N1Cc1ccc2[nH]nnc2c1` (stereo not shown) [Compound 326, 2-((1H-benzo[d][1,2,3]triazol-5-yl)methyl)-5-bromo-3-((4-chloro-1-methyl-1H-pyrazol-5-yl)methyl)isoindolin-1-one], the EC50 in assay [1] (setting [5]) and in assay [2] (setting [6]) was < 500 nM each time. For the same molecule, the “Enzymatic Emax” value in assay [1] is “A (A>3)”. Further, in assay [2] (setting [6]), the maximal fold induction was > 1.5.
As for `Cc1cncc(C#N)c1CC1c2ccccc2C(=O)N1CC1CC2(CNC(=O)O2)C1` (stereo not shown) [Compound 492, 5-methyl-4-((3-oxo-2-((6-oxo-5-oxa-7-azaspiro[3.4]octan-2-yl)methyl)isoindolin-1-yl)methyl)nicotinonitrile], the EC50 in assay [1] (setting [5]) was < 500 nM. Moreover, the “Enzymatic Emax” value in assay [1] is listed as “B (3≥B>2)”. Moreover, in assay [2] (setting [6]), the EC50 is < 500 nM and the maximal fold induction is > 1.5.
As for `COCCn1cc(Cl)c(CC2c3ccccc3C(=O)N2Cc2ccc3[nH]c(=O)oc3c2)n1` (stereo not shown) [Compound 277, 6-((1-((4-chloro-1-(2-methoxyethyl)-1H-pyrazol-3-yl)methyl)-3-oxoisoindolin-2-yl)methyl) benzo[d]oxazol-2(3H)-one], the EC50 in assay [1] (setting [3]) was 500 to 5000 nM; in assay [2] (setting [4]), < 500 nM. Further, the “Enzymatic Emax” value in assay [1] was “A (A>3)”. Moreover, the maximal fold induction in assay [2] (setting [4]) was > 1.5.
As for `O=C1c2ccccc2C(CC2CCCCC2)N1Cc1ccc2[nH]c(=O)oc2c1` (stereo not shown) [Compound 167, 6-((1-(cyclohexylmethyl)-3-oxoisoindolin-2-yl)methyl)benzo[d]oxazol-2(3H)-one], the EC50 in assay [1] (setting [3]) and in assay [2] (setting [4]) was 500 to 5000 nM throughout. The “Enzymatic Emax” value in assay [1] was “B (3≥B>2)”. In addition, the maximal fold induction in assay [2] (setting [4]) is 1.2 to 1.5.
With `Cn1ncc(Cl)c1CC1c2cc(Cl)ccc2C(=O)N1Cc1ccc2[nH]nnc2c1` (stereo not shown) [Compound 354, 2-((1H-benzo[d][1,2,3]triazol-5-yl)methyl)-5-chloro-3-((4-chloro-1-methyl-1H-pyrazol-5-yl)methyl)isoindolin-1-one], the EC50 in assay [1] (setting [5]) and in assay [2] (setting [6]) was < 500 nM throughout. Also, in assay [1], the “Enzymatic Emax” value is “A (A>3)”. Also, the maximal fold induction in assay [2] (setting [6]) is > 1.5.
As to `Cc1cccc2c1C(=O)N(Cc1ccc(O)cc1)C2=O` [Compound 295, 2-(4-hydroxybenzyl)-4-methylisoindoline-1,3-dione], the EC50 in assay [1] (setting [3]) is 500 to 5000 nM. Further, the “Enzymatic Emax” value in assay [1] was “C (2≥C)”. In assay [2] (setting [4]), the EC50 lay in the range of 500 to 5000 nM and the maximal fold induction was in the range of 1.2 to 1.5.
As to `Cc1c(CC2c3ccccc3C(=O)N2Cc2ccc3[nH]nnc3c2)c(C#N)nn1C` (stereo not shown) [Compound 393, 4-((2-((1H-benzo[d][1,2,3]triazol-5-yl)methyl)-3-oxoisoindolin-1-yl)methyl)-1,5-dimethyl-1H-pyrazole-3-carbonitrile], the EC50 in assay [1] (setting [5]) and in assay [2] (setting [6]) was < 500 nM in each case. The “Enzymatic Emax” value in assay [1] is reported as “B (3≥B>2)”. Also, the maximal fold induction in assay [2] (setting [6]) is > 1.5.
For `O=C1c2cccnc2CN1Cc1ccc(O)cc1` [Compound 39, 6-(4-hydroxybenzyl)-6,7-dihydro-5H-pyrrolo[3,4-b]pyridin-5-one], in assay [1] (setting [3]), the EC50 was ≥ 5000 nM. Besides, the “Enzymatic Emax” value in assay [1] was “B (3≥B>2)”. Besides, in assay [2] (setting [4]), the EC50 was in the range of 5000 to 50000 nM and the maximal fold induction is 1.2 to 1.5.

One may read the EC50 as the concentration needed to bring the measured effect to its halfway point.
